Data reported in paper PMC2994747, “Molecular Characterization of c-Abl/c-Src Kinase Inhibitors Targeted against Murine Tumour Progenitor Cells that Express Stem Cell Markers” (PLoS ONE, 2010).

Key:
[1] = biological target: T1, c-Abl (Homo sapiens, UniProt P00519); assay: Abl filter-binding kinase assay (Abtide, [γ-32P]ATP); assay type: biochemical; conditions: isolated Abl; calculated from ID50, ATP-competitive; E0 0.005, S0 0.012 µM
T1 construct: His tag; purchased Upstate (Lake Placid, NY, USA)
T1 sequence (P00519 whole entry): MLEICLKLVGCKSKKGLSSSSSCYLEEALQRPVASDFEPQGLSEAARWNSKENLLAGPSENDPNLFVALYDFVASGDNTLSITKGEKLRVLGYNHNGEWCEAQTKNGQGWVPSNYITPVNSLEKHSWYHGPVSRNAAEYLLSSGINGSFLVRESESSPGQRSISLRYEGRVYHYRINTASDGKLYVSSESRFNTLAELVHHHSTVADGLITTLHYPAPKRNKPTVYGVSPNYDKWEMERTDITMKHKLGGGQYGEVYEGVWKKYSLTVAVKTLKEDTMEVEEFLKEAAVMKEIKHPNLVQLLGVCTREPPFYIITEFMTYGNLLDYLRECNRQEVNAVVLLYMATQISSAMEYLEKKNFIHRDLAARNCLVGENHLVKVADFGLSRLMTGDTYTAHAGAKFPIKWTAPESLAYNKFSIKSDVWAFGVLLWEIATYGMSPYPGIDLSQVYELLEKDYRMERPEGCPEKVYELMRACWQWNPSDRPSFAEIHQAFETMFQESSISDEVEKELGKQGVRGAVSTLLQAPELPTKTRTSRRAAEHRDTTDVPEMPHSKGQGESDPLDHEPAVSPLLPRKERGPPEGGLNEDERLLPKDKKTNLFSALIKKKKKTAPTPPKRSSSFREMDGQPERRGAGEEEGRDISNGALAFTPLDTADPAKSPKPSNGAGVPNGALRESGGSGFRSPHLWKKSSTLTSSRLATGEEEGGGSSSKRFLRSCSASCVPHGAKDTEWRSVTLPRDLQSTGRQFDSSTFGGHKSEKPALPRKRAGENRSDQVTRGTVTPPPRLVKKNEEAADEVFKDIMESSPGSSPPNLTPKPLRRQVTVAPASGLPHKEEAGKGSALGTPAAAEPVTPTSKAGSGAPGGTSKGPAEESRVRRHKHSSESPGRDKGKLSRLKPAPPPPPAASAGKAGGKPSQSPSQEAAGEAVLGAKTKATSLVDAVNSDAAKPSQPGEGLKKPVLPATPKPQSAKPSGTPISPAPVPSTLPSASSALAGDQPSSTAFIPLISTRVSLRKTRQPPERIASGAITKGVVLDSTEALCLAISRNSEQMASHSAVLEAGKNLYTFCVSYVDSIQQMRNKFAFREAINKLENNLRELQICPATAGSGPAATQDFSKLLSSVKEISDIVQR
Experimental: Baculovirus-produced recombinant purified his-tagged active against human Src and Abl were purchased from Upstate (Lake Placid, NY, USA).
Src activity was measured in a filter-binding assay using the Src Assay Kit (Upstate, Lake Placid, NY, USA), according to the manufacturer's protocol, using the specific Src peptide substrate [[…]] in the presence of 0.125 pmol of Src and 0.160 pmol of [γ-^32P]ATP. Abl activity was measured in a filter-binding assay using an Abl specific peptide substrate (Abtide, Upstate). Reaction conditions were (in a final volume of 10 µl): 25 mM Tris-HCl pH 7.5, 1 mM DTT, 0.012 µM [γ-^32P]ATP, 0.022 µM c-Abl. Reactions were incubated 10 min at 30°C.The samples (9 µl) were spotted on paper cellulose filters which were washed according to the manufacturer's protocol. Filter-bound radioactivity was measured by liquid scintillation with a Microbeta-Trilux apparatus (PerkinElmer, Waltham, MA, USA).
The ID50 were converted to Ki according to a competitive mechanism with respect to the substrate ATP. […] Since (i) the ATP concentration was limiting, i.e., [ATP], Km(ATP), and (ii) the enzyme concentration was not negligible with respect to the ATP concentration, the classical Cheng-Prusoff relationship was not applicable. Consequently, Ki values were calculated according to [drawing 3] (2) where S0 is the concentration of the competing substrate (ATP) and E0 is the concentration of the enzyme. Each experiment was done in triplicate and mean values were used for the interpolation. Curve fitting was performed with the program GraphPad Prism.

[2] = test system: A2C12; assay: Whole genome expression analysis (Affymetrix microarray); assay type: cell-based, mouse
Experimental: (§1) The cells were harvested and RNA was isolated using RNeasy Mini Kit (Qiagen, Hilden, Germany) according to the instructions of the manufacturer. The isolated RNA (250 ng) was processed further using standard protocols as described recently with the exception of the 3′ IVT Express Kit (Affymetrix, High Wycombe, UK) that was utilized according to instructions. Quality control of cRNA was done with the Agilent 2100 Bioanalyzer (Agilent Tech according to manufacturer's protocols. Following fragmentation, cRNA of each sample was hybridized to Affymetrix GeneChip® Mouse Genome 430 2.0 or Human Genome U133 Plus 2.0 and scanned with an Affymetrix 3000 7G scanner.
(§2) The resultant data was normalized by Probe Logarithmic Intensity Error Estimation (PLIER) algorithm. Statistical analysis was carried out with the ArrayTrack software (National Center for Toxicological Research/FDA, Jefferson, AR, USA) using SAM algorithm.

[3] = test system: A549; assay: as above; assay type: cell-based, human
Experimental: as §1, §2

[4] = test system: CaCo2; assay: as above; assay type: cell-based, human
Experimental: as §1, §2

[5] = test system: HepG2; assay: as above; assay type: cell-based, human
Experimental: as §1, §2

[6] = IC50 concentration, 96 h, SAM FDR<0.01, FC>2

Fc1ccccc1CNc1ncnc2c1cnn2CC(Cl)c1ccc(Br)cc1 (stereo not shown) [Si162]
Ki [1]: 444 nM | Actg2 (actin, gamma 2, smooth muscle, enteric) regulated gene, Si162 vs Ktr FC [2]: -4.94 | Ccl5 (chemokine (C-C motif) ligand 5) regulated gene, Si162 vs Ktr FC [2]: 2.52 | Ccna2 (cyclin A2) regulated gene, Si162 vs Ktr FC [2]: -4.48 | Ccnb2 (cyclin B2) regulated gene, Si162 vs Ktr FC [2]: -4.51 | Cenpa (centromere protein A) regulated gene, Si162 vs Ktr FC [2]: -4.34 | Ctsb (cathepsin B) regulated gene, Si162 vs Ktr FC [2]: 1.13 | Cxcl12 (chemokine (C-X-C motif) ligand 12) regulated gene, Si162 vs Ktr FC [2]: -1.05 | Errfi1 (ERBB receptor feedback inhibitor 1) regulated gene, Si162 vs Ktr FC [2]: -4.38 | Gadd45a (growth arrest and DNA-damage-inducible, alpha) regulated gene, Si162 vs Ktr FC [2]: 1.40 | Itga5 (integrin, alpha 5 (fibronectin receptor, alpha polypeptide)) regulated gene, Si162 vs Ktr FC [2]: -4.81 | Mdm2 (Mdm2 p53 binding protein homolog (mouse)) regulated gene, Si162 vs Ktr FC [2]: 1.88 | Mmp3 (matrix metallopeptidase 3 (stromelysin 1, progelatinase)) regulated gene, Si162 vs Ktr FC [2]: 3.28 | Mmp13 (matrix metallopeptidase 13 (collagenase 3)) regulated gene, Si162 vs Ktr FC [2]: 3.90 | Nfib (nuclear factor I/B) regulated gene, Si162 vs Ktr FC [2]: -4.56 | Ogn (osteoglycin) regulated gene, Si162 vs Ktr FC [2]: -5.77 | Pdgfrb (platelet-derived growth factor receptor, beta polypeptide) regulated gene, Si162 vs Ktr FC [2]: -4.68 | Plk1 (polo-like kinase 1 (Drosophila)) regulated gene, Si162 vs Ktr FC [2]: -4.48 | Ptn (pleiotrophin) regulated gene, Si162 vs Ktr FC [2]: -4.92 | Sfrp1 (secreted frizzled-related protein 1) regulated gene, Si162 vs Ktr FC [2]: 1.12 | Spp1 (secreted phosphoprotein 1) regulated gene, Si162 vs Ktr FC [2]: 1.21 | Srf (serum response factor) regulated gene, Si162 vs Ktr FC [2]: -4.68 | Tgfb1i1 (transforming growth factor beta 1 induced transcript 1) regulated gene, Si162 vs Ktr FC [2]: -4.59 | Tgfb3 (transforming growth factor, beta 3) regulated gene, Si162 vs Ktr FC [2]: -4.49 | Tlr4 (toll-like receptor 4) regulated gene, Si162 vs Ktr FC [2]: 1.09 | Tnc (tenascin C) regulated gene, Si162 vs Ktr FC [2]: -5.20 | Tp53 (tumor protein p53) regulated gene, Si162 vs Ktr FC [2]: -4.50 | Zyx (zyxin) regulated gene, Si162 vs Ktr FC [2]: -5.47 | Significantly regulated genes, total (number) ([2]; IC50 concentration, 96 h): > 500 | Significantly differentially regulated genes, downregulated (number) [2, 6]: 212 | Significantly differentially regulated genes, upregulated (number) [2, 6]: 357 | Acta2 (actin, alpha 2, smooth muscle, aorta) regulated gene, Si162 vs Ktr FC [3]: 2.46 | Birc5 (baculoviral IAP repeat-containing 5) regulated gene, Si162 vs Ktr FC [3]: -6.60 | Capn12 (calpain 12) regulated gene, Si162 vs Ktr FC [3]: 1.16 | Ccna2 (cyclin A2) regulated gene, Si162 vs Ktr FC [3]: -6.93 | Ccnb1 (cyclin B1) regulated gene, Si162 vs Ktr FC [3]: -5.43 | Ccnb2 (cyclin B2) regulated gene, Si162 vs Ktr FC [3]: -6.15 | Cdc2 (cell division cycle 2 (Cdk1)) regulated gene, Si162 vs Ktr FC [3]: -7.06 | Cdh1 (cadherin 1, type 1, E-cadherin (epithelial)) regulated gene, Si162 vs Ktr FC [3]: 1.36 | Cdkn1a (cyclin-dependent kinase inhibitor 1A (p21Cip1)) regulated gene, Si162 vs Ktr FC [3]: 2.54 | Cdkn3 (cyclin-dependent kinase inhibitor 3) regulated gene, Si162 vs Ktr FC [3]: -5.90 | Ceacam6 (carcinoembryonic antigen-related cell adhesion molecule 6) regulated gene, Si162 vs Ktr FC [3]: 3.24 | Cenpa (centromere protein A) regulated gene, Si162 vs Ktr FC [3]: -6.17 | Ctsb (cathepsin B) regulated gene, Si162 vs Ktr FC [3]: 1.38 | Dgka (diacylglycerol kinase, alpha 80kDa) regulated gene, Si162 vs Ktr FC [3]: 1.92 | E2F1 (E2F transcription factor 1) regulated gene, Si162 vs Ktr FC [3]: -6.54 | Fas (Fas (TNF receptor superfamily, member 6)) regulated gene, Si162 vs Ktr FC [3]: 2.18 | Fn1 (fibronectin 1) regulated gene, Si162 vs Ktr FC [3]: 1.40 | Gadd45a (growth arrest and DNA-damage-inducible, alpha) regulated gene, Si162 vs Ktr FC [3]: 1.46 | Gsk3b (glycogen synthase kinase 3 beta) regulated gene, Si162 vs Ktr FC [3]: 1.51 | Inpp5d (inositol polyphosphate-5-phosphatase, 145kDa) regulated gene, Si162 vs Ktr FC [3]: 2.27 | Itgb4 (integrin, beta 4) regulated gene, Si162 vs Ktr FC [3]: 1.48 | Jun (jun oncogene) regulated gene, Si162 vs Ktr FC [3]: 1.36 | Mdm2 (Mdm2 p53 binding protein homolog (mouse)) regulated gene, Si162 vs Ktr FC [3]: 1.96 | Plk1 (polo-like kinase 1 (Drosophila)) regulated gene, Si162 vs Ktr FC [3]: -2.12 | Ptgs2 (prostaglandin-endoperoxide synthase 2) regulated gene, Si162 vs Ktr FC [3]: 1.27 | Tgfb1i1 (transforming growth factor beta 1 induced transcript 1) regulated gene, Si162 vs Ktr FC [3]: 1.15 | Tuba1a (tubulin, alpha 1a) regulated gene, Si162 vs Ktr FC [3]: 1.06 | Vtn (vitronectin) regulated gene, Si162 vs Ktr FC [3]: 4.54 | Significantly differentially regulated genes, downregulated (number) [3, 6]: 472 | Significantly differentially regulated genes, upregulated (number) [3, 6]: 785 | Cav1 (caveolin 1, caveolae protein, 22kDa) regulated gene, Si162 vs Ktr FC [4]: 2.45 | Ceacam6 (carcinoembryonic antigen-related cell adhesion molecule 6) regulated gene, Si162 vs Ktr FC [4]: 1.49 | Mmp1 (matrix metallopeptidase 1 (interstitial collagenase)) regulated gene, Si162 vs Ktr FC [4]: 1.71 | Pmaip1 (phorbol-12-myristate-13-acetate-induced protein 1 (Noxa)) regulated gene, Si162 vs Ktr FC [4]: 1.12 | Tuba1a (tubulin, alpha 1a) regulated gene, Si162 vs Ktr FC [4]: 1.01 | Vim (vimentin) regulated gene, Si162 vs Ktr FC [4]: 1.80 | Significantly differentially regulated genes, downregulated (number) [4, 6]: 6 | Significantly differentially regulated genes, upregulated (number) [4, 6]: 75 | Akt2 (v-akt murine thymoma viral oncogene homolog 2) regulated gene, Si162 vs Ktr FC [5]: -4.47 | Bcl2l1 (BCL2-like 1) regulated gene, Si162 vs Ktr FC [5]: 1.08 | Birc5 (baculoviral IAP repeat-containing 5) regulated gene, Si162 vs Ktr FC [5]: -4.98 | Capn2 (calpain 2, (m/II) large subunit) regulated gene, Si162 vs Ktr FC [5]: 2.34 | Casp3 (caspase 3, apoptosis-related cysteine peptidase) regulated gene, Si162 vs Ktr FC [5]: 1.08 | Casp6 (caspase 6, apoptosis-related cysteine peptidase) regulated gene, Si162 vs Ktr FC [5]: 1.01 | Cdc2 (cell division cycle 2 (Cdk1)) regulated gene, Si162 vs Ktr FC [5]: -5.34 | Cdh1 (cadherin 1, type 1, E-cadherin (epithelial)) regulated gene, Si162 vs Ktr FC [5]: 1.32 | Cdkn1a (cyclin-dependent kinase inhibitor 1A (p21Cip1)) regulated gene, Si162 vs Ktr FC [5]: 1.62 | Cdkn2a (cyclin-dependent kinase inhibitor 2A (p16)) regulated gene, Si162 vs Ktr FC [5]: 2.03 | Cdkn2b (cyclin-dependent kinase inhibitor 2B (p15)) regulated gene, Si162 vs Ktr FC [5]: 3.43 | Cenpa (centromere protein A) regulated gene, Si162 vs Ktr FC [5]: -4.35 | Egfr (epidermal growth factor receptor) regulated gene, Si162 vs Ktr FC [5]: 1.36 | Fas (Fas (TNF receptor superfamily, member 6)) regulated gene, Si162 vs Ktr FC [5]: 2.46 | Grb10 (growth factor receptor-bound protein 10) regulated gene, Si162 vs Ktr FC [5]: 1.12 | Jun (jun oncogene) regulated gene, Si162 vs Ktr FC [5]: 1.14 | Mdm2 (Mdm2 p53 binding protein homolog (mouse)) regulated gene, Si162 vs Ktr FC [5]: 1.15 | Mmp3 (matrix metallopeptidase 3 (stromelysin 1, progelatinase)) regulated gene, Si162 vs Ktr FC [5]: 4.17 | Pdgfrb (platelet-derived growth factor receptor, beta polypeptide) regulated gene, Si162 vs Ktr FC [5]: -4.81 | Pmaip1 (phorbol-12-myristate-13-acetate-induced protein 1 (Noxa)) regulated gene, Si162 vs Ktr FC [5]: 1.37 | Tgfb1i1 (transforming growth factor beta 1 induced transcript 1) regulated gene, Si162 vs Ktr FC [5]: 1.86 | Tuba1a (tubulin, alpha 1a) regulated gene, Si162 vs Ktr FC [5]: 4.28 | Differentially expressed genes, total (number) ([5]; IC50 concentration, 96 h): more than 1400 | Significantly differentially regulated genes, downregulated (number) [5, 6]: 707 | Significantly differentially regulated genes, upregulated (number) [5, 6]: 717
